Test results as given in US20260345641A1, “COMPOSITIONS AND USES THEREOF” (Algorae Pharmaceuticals Ltd, priority 2023, published 2026).

System: SH-S5Y5 neuroblastoma cells
Test: Cell viability (MTT) in response to Aβ, in vitro model of Alzheimer's disease
Format: cell-based
Settings: 20 μM Aβ, 24 h
Source text: The SH-S5Y5 neuroblastoma cell line was used for pre-clinical analysis. The SH-S5Y5 cell line is commonly used as a model for neurodegenerative disorders as the cells can be converted to various types of functional neurons by the addition of specific compounds (see, e.g., Xicoy et al., 2017, Molecular Neurodegeneration, 12: 10). In addition, the SH-S5Y5 cell line has been used widely in experimental neurological studies, including analysis of neuronal differentiation, metabolism, and function related to neurodegenerative processes, neurotoxicity and neuroprotection (see, e.g., Datki et al., 2003, Brain Research Bulletin, 62(3): 22-229; and Xie et al., 2010, Chinese Medical Journal, 123(8): 1086-1092).
100 μL MTT reagent was added to each well (final concentration 0.5 mg/mL). Cells were then incubated at 37 °C, 5% CO2 for 4 hours. Solubilization buffer (100 μL) was then added to each well and further incubated at 37 °C, 5% CO2 for 24 hours. Absorbance was then measured by spectrophotometer at 550-600 nm and background corrected at 650 nm.
Amyloid-β (Aβ; 1 mg) was dissolved in 2 mL of 1,1,1,3,3,3-hexafluoro-2-propanol (HFIP). An additional 200 μL of HFIP was then added due to volatility. The Aβ was sealed with parafilm and vortexed for 30 seconds before aliquoting at 100 μL per 1.5 mL tube. HFIP was then evaporated in fume hood for 8 hours. Tubes were then sealed with lid and parafilm and stored at −80 °C. Prior to use, Aβ was reconstituted in DMSO to a final volume of 10% v/v for 10-15 min at RT and vortexed every 3-5 min. F-12 medium was then added to a final volume of 90% v/v. Aβ was then stored at 4 °C for 24 hours and vortexed before use.
Cells were seeded in 96-well microplates and incubated 37 °C, 5% CO2 for 24 hours.

COc1cc2c(cc1OC)C(=O)C(CC1CCN(Cc3ccccc3)CC1)C2 (centres unmarked) [Donepezil]
Cell viability as measured by MTT (Donepezil 2.5 μM): −0.036
Cell viability as measured by MTT (Donepezil 5 μM): −0.021
Cell viability as measured by MTT (Donepezil 10 μM): 0.021
Cell viability as measured by MTT (Donepezil 20 μM): −0.011
Cell viability as measured by MTT (Donepezil 30 μM): −0.013
